Source: ChEMBL document CHEMBL4118132, “Novel 5-methyl-2-phenylphenanthridium derivatives as FtsZ-targeting antibacterial agents from structural simplification of natural product sanguinarine” (2018)
≈ marks a conversion by molar mass, not a printed value. Calls of active or inactive are those of the source. The rule behind the calls is not given here.

Columns and labels:
Staphylococcus aureus [1] = assay: Antibacterial activity against penicillin-susceptible Staphylococcus aureus ATCC 25923 after 24 hrs by broth microdilution method; format: functional; conditions: ATCC 25923, 24 h
Staphylococcus aureus [2] = assay: Antibacterial activity against methicillin-resistant Staphylococcus aureus ATCC 43300 after 24 hrs by broth microdilution method; format: functional; conditions: ATCC 43300, 24 h
Staphylococcus aureus [3] = assay: Antibacterial activity against penicillin-resistant Staphylococcus aureus clinical isolate after 24 hrs by broth microdilution method; format: functional
[4] = tested on: Staphylococcus epidermidis; assay: Antibacterial activity against penicillin-resistant Staphylococcus epidermidis clinical isolate after 24 hrs by broth microdilution method; format: functional
Staphylococcus aureus [5] = assay: Potency index, ratio of ciprofloxacin MIC to test compound MIC for penicillin-resistant Staphylococcus aureus clinical isolate; format: functional
Streptococcus pyogenes [6] = assay: Antibacterial activity against penicillin-susceptible Streptococcus pyogenes after 24 hrs by broth microdilution method; format: functional
Streptococcus pyogenes [7] = assay: Antibacterial activity against penicillin-resistant Streptococcus pyogenes after 24 hrs by broth microdilution method; format: functional
Bacillus subtilis = assay: Antibacterial activity against penicillin-susceptible Bacillus subtilis ATCC 9372 after 24 hrs by broth microdilution method; format: functional; conditions: ATCC 9372, 24 h
Bacillus pumilus = assay: Antibacterial activity against penicillin-susceptible Bacillus pumilus ATCC 63202 after 24 hrs by broth microdilution method; format: functional; conditions: ATCC 63202, 24 h
Escherichia coli = assay: Antibacterial activity against penicillin-susceptible Escherichia coli ATCC 25922 after 24 hrs by broth microdilution method; format: functional; conditions: ATCC 25922, 24 h
Pseudomonas aeruginosa = assay: Antibacterial activity against penicillin-susceptible Pseudomonas aeruginosa ATCC 27853 after 24 hrs by broth microdilution method; format: functional; conditions: ATCC 27853, 24 h
Staphylococcus aureus [8] = assay: Potency index, ratio of ciprofloxacin MIC to test compound MIC for penicillin-susceptible Staphylococcus aureus ATCC 25923; format: functional
Staphylococcus aureus [9] = assay: Potency index, ratio of oxacillin sodium MIC to test compound MIC for penicillin-susceptible Staphylococcus aureus ATCC 25923; format: functional
Staphylococcus aureus [10] = assay: Potency index, ratio of ciprofloxacin MIC to test compound MIC for methicillin-resistant Staphylococcus aureus ATCC 43300; format: functional
Staphylococcus aureus [11] = assay: Potency index, ratio of oxacillin sodium MIC to test compound MIC for methicillin-resistant Staphylococcus aureus ATCC 43300; format: functional
Staphylococcus aureus [12] = assay: Potency index, ratio of oxacillin sodium MIC to test compound MIC for penicillin-resistant Staphylococcus aureus clinical isolate; format: functional
[13] = tested on: Staphylococcus epidermidis; assay: Potency index, ratio of ciprofloxacin MIC to test compound MIC for penicillin-resistant Staphylococcus epidermidis clinical isolate; format: functional
[14] = tested on: Staphylococcus epidermidis; assay: Potency index, ratio of oxacillin sodium MIC to test compound MIC for penicillin-resistant Staphylococcus epidermidis clinical isolate; format: functional
Streptococcus pyogenes [15] = assay: Potency index, ratio of ciprofloxacin MIC to test compound MIC for penicillin-susceptible Streptococcus pyogenes; format: functional
Streptococcus pyogenes [16] = assay: Potency index, ratio of oxacillin sodium MIC to test compound MIC for penicillin-susceptible Streptococcus pyogenes; format: functional
Streptococcus pyogenes [17] = assay: Potency index, ratio of ciprofloxacin MIC to test compound MIC for penicillin-resistant Streptococcus pyogenes; format: functional
Streptococcus pyogenes [18] = assay: Potency index, ratio of oxacillin sodium MIC to test compound MIC for penicillin-resistant Streptococcus pyogenes; format: functional
Staphylococcus aureus [19] = assay: Bactericidal activity against penicillin-susceptible Staphylococcus aureus ATCC 25923 after 24 hrs by flat colony counting method; format: functional; conditions: ATCC 25923, 24 h
[20] = target: T1, Cell division protein FtsZ (Bacillus subtilis) (UniProt A5Z1V5); assay: Inhibition of penicillin-susceptible Bacillus subtilis ATCC 9372 N-terminal His6-tagged FtsZ expressed in Escherichia coli BL21 (DE3) cells by fluorescence spectrophotometer-based light scattering assay
T1 sequence (whole entry): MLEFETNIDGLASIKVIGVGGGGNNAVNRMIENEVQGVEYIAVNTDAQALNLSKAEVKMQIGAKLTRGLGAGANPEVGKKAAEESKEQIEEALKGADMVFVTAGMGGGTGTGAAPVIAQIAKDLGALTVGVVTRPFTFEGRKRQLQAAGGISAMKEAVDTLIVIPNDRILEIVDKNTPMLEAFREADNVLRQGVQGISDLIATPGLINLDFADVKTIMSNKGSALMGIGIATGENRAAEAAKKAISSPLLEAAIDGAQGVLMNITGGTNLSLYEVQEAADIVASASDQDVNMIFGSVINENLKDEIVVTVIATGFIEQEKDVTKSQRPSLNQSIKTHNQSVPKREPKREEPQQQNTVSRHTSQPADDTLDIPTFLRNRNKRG

[21] = target: T1, Cell division protein FtsZ (Bacillus subtilis); assay: Inhibition of penicillin-susceptible Bacillus subtilis ATCC 9372 N-terminal His6-tagged FtsZ expressed in Escherichia coli BL21 (DE3) cells at 10 ug/ml by fluorescence spectrophotometer-based light scattering assay
[22] = target: T1, Cell division protein FtsZ (Bacillus subtilis); assay: Inhibition of FtsZ in penicillin-susceptible Bacillus subtilis ATCC 9372 assessed as increase in length of bacteria at 8 ug/ml after 5 hrs by phase-contrast light microscopic method
[23] = target: T2, Cell division protein FtsZ (Staphylococcus aureus) (UniProt P0A031); assay: Inhibition of FtsZ in penicillin-susceptible Staphylococcus aureus ATCC 25923 assessed as increase in length of bacteria at 4 ug/ml after 5 hrs by phase-contrast light microscopic method
T2 sequence (whole entry): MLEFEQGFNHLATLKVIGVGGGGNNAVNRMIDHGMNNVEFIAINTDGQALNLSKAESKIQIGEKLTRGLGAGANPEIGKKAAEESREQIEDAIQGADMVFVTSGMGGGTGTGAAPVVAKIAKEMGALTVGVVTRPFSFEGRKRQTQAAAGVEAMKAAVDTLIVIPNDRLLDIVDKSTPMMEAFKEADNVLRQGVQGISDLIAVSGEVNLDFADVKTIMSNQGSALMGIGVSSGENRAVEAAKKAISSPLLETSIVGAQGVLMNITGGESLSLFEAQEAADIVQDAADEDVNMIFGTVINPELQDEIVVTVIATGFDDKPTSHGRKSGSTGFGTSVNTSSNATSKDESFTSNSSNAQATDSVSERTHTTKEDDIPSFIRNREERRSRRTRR

SMILES	MIC (Staphylococcus aureus [1])	MIC (Staphylococcus aureus [2])	MIC (Staphylococcus aureus [3])	MIC [4]	Ratio (Staphylococcus aureus [5])	MIC (Streptococcus pyogenes [6])	MIC (Streptococcus pyogenes [7])	MIC (Bacillus subtilis)	MIC (Bacillus pumilus)	MIC (Escherichia coli)	MIC (Pseudomonas aeruginosa)	Ratio (Staphylococcus aureus [8])	Ratio (Staphylococcus aureus [9])	Ratio (Staphylococcus aureus [10])	Ratio (Staphylococcus aureus [11])	Ratio (Staphylococcus aureus [12])	MBC (Staphylococcus aureus [19])	also measured
Cc1cc(-c2ccc(-c3ccccc3)cc2)cc2c3ccccc3c[n+](C)c12.[Cl-]	0.06 µg/mL	0.5 µg/mL	0.25 µg/mL	0.125 µg/mL	64	1 µg/mL	2 µg/mL	0.125 µg/mL	0.125 µg/mL	> 64 µg/mL	> 64 µg/mL	133	67	4 - 164	16 - 256	256	64 µg/mL	Ratio [13]: 512; Ratio [14]: 512; Ratio (Streptococcus pyogenes [15]): 8; Ratio (Streptococcus pyogenes [16]): 1; Ratio (Streptococcus pyogenes [17]): 32; Ratio (Streptococcus pyogenes [18]): 32; inhibition [20]: Dose-dependent effect
O=C(O)c1cn(C2CC2)c2cc(N3CCNCC3)c(F)cc2c1=O [CIPROFLOXACIN]	8 µg/mL (≈ 24.1 µM)	–	–	–	–	8 µg/mL (≈ 24.1 µM)	> 64 µg/mL	2 µg/mL (≈ 6.04 µM)	8 µg/mL (≈ 24.1 µM)	–	–	–	–	–	–	–	–	inhibition [21]: Active
C[n+]1cc2c3c(ccc2c2ccc4cc5c(cc4c21)OCO5)OCO3.[Cl-] [SANGUINARIUM CHLORIDE]	8 µg/mL	8 µg/mL	4 µg/mL	8 µg/mL	–	4 µg/mL	4 µg/mL	4 µg/mL	4 µg/mL	> 64 µg/mL	> 64 µg/mL	–	–	–	–	–	–	inhibition [22]: Active; inhibition [23]: Active
Cc1cc(-c2ccc(OC(F)(F)F)cc2)cc2c3ccccc3c[n+](C)c12.[Cl-]	0.06 µg/mL	0.25 µg/mL	1 µg/mL	0.25 µg/mL	4 - 64	2 µg/mL	4 µg/mL	0.125 µg/mL	0.125 µg/mL	> 64 µg/mL	> 64 µg/mL	133	67	64	256	16 - 256	16 µg/mL	–
